Reference: patent publication US20240299309A1 (priority 2020, published 2024)

How the values were obtained:
Pseudomonas aeruginosa = assay type: cell-based
Staphylococcus aureus = assay type: cell-based
SARS-CoV-2 = tested on: SARS-CoV-2; parameters: species or system Balb/c mice; conditions: mouse, in vivo

Row | Compound | antimicrobiotic activity (Pseudomonas aeruginosa) | antimicrobiotic activity (Staphylococcus aureus) | VNTs after 48 h storage with preservative (SARS-CoV-2)
1 | OCCOc1ccccc1 [Formulation 2-PE, 2-Phenoxyethanol] | has antimicrobiotic activity | has antimicrobiotic activity | more advantageous results
2 | C[CH2][Hg][S]c1ccccc1C(=O)[O-].[Na+] [Thiomersal, Natrium-2-(ethylmercurithio)benzoat] | – | – | slight decrease
